In experiment [1] the target is T1, Alpha-1B adrenergic receptor (Homo sapiens, UniProt P35368).
T1 sequence (P35368 whole entry): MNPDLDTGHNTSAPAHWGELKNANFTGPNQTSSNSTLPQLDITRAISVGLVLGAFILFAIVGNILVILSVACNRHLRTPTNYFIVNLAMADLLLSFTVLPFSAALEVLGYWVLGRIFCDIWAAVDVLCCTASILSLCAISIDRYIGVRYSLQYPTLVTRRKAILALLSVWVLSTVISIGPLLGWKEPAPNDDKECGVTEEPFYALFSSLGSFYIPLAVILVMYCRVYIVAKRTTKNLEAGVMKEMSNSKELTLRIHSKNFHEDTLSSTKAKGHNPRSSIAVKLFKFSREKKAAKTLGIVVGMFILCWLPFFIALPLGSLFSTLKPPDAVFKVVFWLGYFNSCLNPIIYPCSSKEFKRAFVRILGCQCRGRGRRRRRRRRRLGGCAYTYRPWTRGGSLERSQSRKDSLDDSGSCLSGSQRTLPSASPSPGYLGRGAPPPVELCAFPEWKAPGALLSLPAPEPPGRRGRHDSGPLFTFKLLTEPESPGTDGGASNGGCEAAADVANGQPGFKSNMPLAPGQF
Nature of the experiment: Displacement of [3H]prazosin from human cloned alpha1B adrenoceptor expressed in CHO cell membranes after 30 mins by liquid scintillation counter. Background: Loss of bound radioactivity is the signal in a displacement assay; it reports binding, not function.

The target in experiment [2] is T2, Alpha-1D adrenergic receptor (Rattus norvegicus, UniProt P23944).
T2 sequence (P23944 whole entry): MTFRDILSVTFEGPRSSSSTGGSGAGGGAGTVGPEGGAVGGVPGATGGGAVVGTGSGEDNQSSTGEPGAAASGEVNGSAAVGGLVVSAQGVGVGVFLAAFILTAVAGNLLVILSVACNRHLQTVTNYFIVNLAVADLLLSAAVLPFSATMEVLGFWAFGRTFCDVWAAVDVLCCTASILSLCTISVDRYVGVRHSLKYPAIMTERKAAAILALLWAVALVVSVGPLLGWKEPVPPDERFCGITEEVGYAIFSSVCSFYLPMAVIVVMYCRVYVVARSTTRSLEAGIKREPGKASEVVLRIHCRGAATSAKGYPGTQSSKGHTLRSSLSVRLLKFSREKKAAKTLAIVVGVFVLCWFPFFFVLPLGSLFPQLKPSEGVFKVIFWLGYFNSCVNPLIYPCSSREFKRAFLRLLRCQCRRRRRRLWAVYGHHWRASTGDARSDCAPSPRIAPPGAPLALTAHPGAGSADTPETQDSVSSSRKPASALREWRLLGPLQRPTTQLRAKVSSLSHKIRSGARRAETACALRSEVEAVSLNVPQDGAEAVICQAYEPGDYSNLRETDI
Nature of the experiment: Antagonist activity at alpha1D adrenoceptor in Sprague-Dawley rat thoracic aorta assessed as inhibition of noradrenaline-induced contractions after 30 mins. Type of experiment: functional, tissue-based. The note with it: read-out: pA2 (converted).

The term Ki denotes the equilibrium dissociation constant of an inhibitor or competing ligand from its target. High values mean lower affinity, low ones higher affinity.

Consider `COc1cccc(OC)c1OCCNC[C@H]1COc2cccc(Cl)c2O1.Cl`, for which affinity in experiment [1] was put at a Ki of 2.19 nM. For the same compound, the Kb in experiment [2] is 3.02 nM.
Consider `COc1cccc(OC)c1OCCNC[C@H]1COc2cccc(O)c2O1.Cl`, for which the affinity in experiment [1], expressed as Ki, was 30.9 nM. Also, the Kb in experiment [2] is 51.3 nM.
In experiment [1], `COc1cccc(OC)c1OCCNC[C@H]1COc2c(OC)cccc2O1.Cl` gave a Ki of 447 nM. Besides, in experiment [2], the Kb is 5.75 nM.
Turning to `COc1cccc(OC)c1OCCNC[C@H]1COc2cccc(F)c2O1.Cl`, in experiment [1], the affinity corresponds to a Ki of 2.4 nM. Moreover, the Kb in experiment [2] is 9.33 nM.
The matching figures for `COc1cccc(OC)c1OCCNC[C@H]1COc2cccc(OC)c2O1.Cl`: 2.75 nM and 11.7 nM.

The record behind these values is ChEMBL document CHEMBL2150980 (Eur J Med Chem, 2012).
